Test results from article PMC2877376 (Journal of biomolecular screening, 2009).

System: E. coli K-12 sulA-gfp (strain SS996)
Assay: RecA-dependent SOS activation, sulA-gfp reporter
Type: cell-based, Escherichia coli
Settings: ciprofloxacin only, 90 min, 37 °C; untreated bacteria 0.76

`O=C(O)c1cn(C2CC2)c2cc(N3CCNCC3)c(F)cc2c1=O` [ciprofloxacin] was tested, and the “relative GFP expression (GFP/DAPI intensity ratio)” value was 0.87.
